This is an account of results in EP1669365A1, “Method for preparing enzymatic substrate analogs as inhibitors of bacterial heptosyl-transferases” (priority 2004, dated 2006).

This experiment concerns the target T1, WaaC (Escherichia coli, UniProt P24173).
T1 construct: made in house; host or cells: E. coli BL21 double mutant with the heptosyltransferase I and II genes deleted
Nature of the experiment: WaaC IC50 fluorimetric in vitro heptosyltransferase assay (NADH fluorescence, pyruvate kinase/lactate dehydrogenase coupled). The note with it: inhibitory activity on Waac enzymatic activity; 1nM purified WaaC, 3µM Re-LPS, pH 7.0. The format is biochemical. The protocol: A fluorimetric in vitro assay was set up to quantify the enzymatic activity of purified heptosyl transferase.Said fluorimetic assay is used to identify inhibitors and for measuring IC50 determinations.
WaaC IC50 assays are performed in black 96-well plates (Wallac) in a final volume of 100µL at pH 7.0 comprising: the inhibitor studied dissolved in 2µL DMSO at 10 different concentrations, 50mM HEPES, 10mM MgCl2, 50mM KCl, 0.1% Triton-), 3µM Re-LPS (Sigma, purified from Salmonella Minnesota), 1nM of purified WaaC, 5u/mL Pyruvate kinase (Sigma), 50µM Phosphoenolpyruvate (Sigma), 5u/mL Lactate dehydrogenase (Sigma) and 1.5µM NADH (Sigma). Fluorescence intensity of NADH (λex= 360nm, λem=520nm) is read once before enzyme addition (background), and is followed kinetically afterwards. Initial velocities are determined from the linear phase after background substraction. IC50 curves are fitted to a classical sigmoidal model with Hill slope.

T1 sequence (P24173 whole entry): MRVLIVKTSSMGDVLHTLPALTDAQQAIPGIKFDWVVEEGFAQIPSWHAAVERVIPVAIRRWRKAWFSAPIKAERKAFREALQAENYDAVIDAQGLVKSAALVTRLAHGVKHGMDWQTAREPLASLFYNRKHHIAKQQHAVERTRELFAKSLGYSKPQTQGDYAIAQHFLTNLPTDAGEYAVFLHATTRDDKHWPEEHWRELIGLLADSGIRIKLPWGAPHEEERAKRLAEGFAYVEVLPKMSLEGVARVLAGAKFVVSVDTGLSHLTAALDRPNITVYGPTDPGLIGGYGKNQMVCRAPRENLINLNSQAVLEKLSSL

As a reminder, the IC50 is the concentration at which inhibition is half-maximal. “Adenosine 5'-diphospho-2-Deoxy-2-fluoro-6-L-glycero-β-D-heptoglucopyranoside”: the IC50 turned out to be 57 µM.
